Reference: paper PMC4811560, “Kinetic Characterisation of a Single Chain Antibody against the Hormone Abscisic Acid: Comparison with Its Parental Monoclonal” (PLoS ONE, 2016)
Like-named read-outs stand apart in the source and are kept apart here. Marks after values point to notes of the source that are not given here.

Columns and labels:
[1] = tested on: MBP-antiABA-scFv; experiment: SPR affinity in solution (competitive titration) of test compounds for the scFv; assay type: binding, mouse; settings: for Cross-reactivity MBP-aABA-scFv: from KA relative to (+)-ABA = 100%; for Affinity in solution, MBP-aABA-scFv, KA / Kd: scFv 25 nM, 1 hour at 25°C; for Kd: read-out: Affinity in solution, MBP-aABA-scFv, KD
Protocol: All heterogeneous phase (surface) techniques can be subject to artefacts introduced by ligand immobilisation or e.g. biotinylation of the free ligand. […] The equilibrium mixtures (1 hour at 25°C) were injected over an SA chip surface saturated with b-PEG-ABA at high ligand density, and the initial binding rate of free scFv was measured. The concentration of free scFv from each equilibrium mixture was determined from a calibration curve (S6A Fig) and plotted against the concentration of free (+)-ABA. Data points were fitted to the solution affinity model in BIAevaluation (S5B Fig). […] Thus, the kinetics of the fusion protein have been described with confidence. Next these were compared with the characteristics of both cleaved, free scFv and with the parental monoclonal immunoglobulin.
The selectivity of the scFv for (+)-ABA was tested by determining the affinity in solution for structurally or physiologically related compounds. […] The concentration of free scFv in the equilibrium mixtures was determined and plotted against concentration of competitor. Affinity was determined by fitting the data points to a solution affinity model (Fig 4). The KA value was determined for each compound, and then percentage cross-reactivity was calculated by expressing each KA value relative to the KA for (+)-ABA. Values were compared to literature data for the parental monoclonal antibody (Table 3).
Fig 4 Cross-reactivity of the anti-ABA-scFv. […] The concentration of free scFv in the equilibrium mixtures was plotted against the concentration of test compound. The structures of each competitor are shown framed in the same colours as the data in the dose graph. There is no box for the racemic mix. The colour code for each compound is shown on the left of the plot.
Figure S6. Affinity in solution. (a) A calibration curve was generated by injecting known concentrations of free MBP-antiABA-scFv (0.1 nM – 50 nM) over the surface of a SA sensor chip saturated with b -PEG-ABA, plotting the initial binding rate against concentration and fitting the data points to a 4 -parameter equation. (b) MBP- […]
1 nM, 5 nM, 10 nM, 50 nM, 100 nM, 200 nM, 500 nM), and the mixtures incubated to equilibrium (1 hour at 25°C). The concentration of free MBP -antiABA-scFv in the equilibrium mixtures was then determined from the calibration curve. The concentration of free MBP -antiABA-scFv in the equilibrium mixtures was plotted against (+)-ABA concentration and the data points were fitted to a solution affinity […]
(1 picture or pasted object on this page, not shown here)

[2] = tested on: mAb 15-I-C5; settings: cited from earlier work
[3] = no reference given; cited from earlier work
[4] = radiolabel displacement curves, 50% displacement, ref Walker-Simmons et al., 1991
[5] = radiolabel displacement curves, 50% displacement, ref Phytodetek manual m100.2, Agdia Inc.

Structure (SMILES)	Cross-reactivity MBP-aABA-scFv [1]	Affinity in solution, MBP-aABA-scFv, KA [1]	Kd [1]	Cross-reactivity mAb 15-I-C5 [2, 5]	further results
CC(C=CC1C(C)=CC(=O)CC1(C)C)=CC(=O)O (mixture of isomers) [2-cis-(R,S)-(±)-1’-deoxy-ABA]	0.309%	917000 M⁻¹	1.09 µM		Cross-reactivity MBP-aABA-scFv ([1]; listed as 1ʹ-deoxy-ABA): 0.3%; affinity, fold lower than that for (+)-ABA ([1]; scFv): over 100 fold
CC(C=CC1(O)C(C)=CC(=O)CC1(C)C)=CC(=O)O (racemic) [2-cis-(R,S)-(±)-ABA]	44.25%	1.31e+08 M⁻¹	0.00761 µM		Cross-reactivity mAb 15-I-C5 [2, 4]: 49.4 ^d %; Cross-reactivity MBP-aABA-scFv ([1]; listed as (±)-ABA): 44.3%
NCCCCC(N)C(=O)O (racemic) [D,L-Lysine]	0.00006%	163 M⁻¹	6120 µM		Cross-reactivity MBP-aABA-scFv ([1]; listed as lysine): lower than 10^−4%
CC1=CC(=O)CC(C)(C)[C@@]1(O)/C=C/C(C)=C\C(=O)O [2-cis-(S)-(+)-ABA]	100%	2.96e+08 M⁻¹	0.00337 µM		Cross-reactivity mAb 15-I-C5 ([2]; reference value, determined by other investigators, no source marked): 100%; affinity relative to the inactive (-)-ABA ([1]; scFv): three orders of magnitude higher
CC1=CC(=O)CC(C)(C)[C@@]1(O)/C=C/C(C)=C/C(=O)O [2-trans-(S)-(+)-ABA]				0%	Cross-reactivity mAb 15-I-C5 [2, 4]: 0.98%
CC1=CC(=O)CC(C)(C)C1(O)/C=C/C(C)=C\C(=O)O (centres unmarked) [ABA, abscisic acid]					pKa [3]: 4.75
CC(C)=CCC/C(C)=C/CC/C(C)=C/CO [All-trans-Farnesol]	0.00002%	58.4 M⁻¹	17100 µM	0 ^c %	Cross-reactivity MBP-aABA-scFv ([1]; listed as farnesol): lower than 10^−4%
O=C(O)c1ccccc1 [Benzoic acid]	0.00003%	91.7 M⁻¹	10900 µM		Cross-reactivity MBP-aABA-scFv ([1]; listed as benzoic acid): lower than 10^−4%
CC(C=CC1(O)C2(C)COC1(C)CC(O)C2)=CC(=O)O (centres unmarked) [Dihydrophaseic acid]	0.156%	462000 M⁻¹	2.17 µM	<0.1 ^c %	Cross-reactivity MBP-aABA-scFv ([1]; listed as dihydrophaseic acid): 0.16%; affinity, fold lower than that for (+)-ABA ([1]; scFv): over 100 fold
C=C1C[C@]23C[C@@]1(O)CC[C@H]2[C@@]12C=C[C@H](O)[C@@](C)(C(=O)O1)[C@H]2[C@@H]3C(=O)O [Gibberellic acid]	0.00001%	30.4 M⁻¹	32800 µM		Cross-reactivity MBP-aABA-scFv ([1]; listed as gibberellic acid): lower than 10^−4%
O=C(O)Cc1c[nH]c2ccccc12 [Indole-3-acetic acid]	0.00005%	138 M⁻¹	7230 µM		Cross-reactivity MBP-aABA-scFv ([1]; listed as auxin): lower than 10^−4%
CC(=C/C(=O)O)/C=C/[C@]1(O)[C@@]2(C)CO[C@]1(C)CC(=O)C2 [Phaseic acid]	0.029%	88200 M⁻¹	11.3 µM	<0.1 ^c %	Cross-reactivity MBP-aABA-scFv ([1]; listed as phaseic acid): 0.03%; affinity, fold lower than that for (+)-ABA ([1]; scFv): over 100 fold
CC(C=CC12OC1(C)CC(O)CC2(C)C)=CC=O (centres unmarked) [Xanthoxin]	0.0002%	617 M⁻¹	1620 µM	0 ^c %	Cross-reactivity MBP-aABA-scFv ([1]; listed as xanthoxin): lower than 10^−4%
